Results: paper PMC10650850, “Discovery, Structure–Activity Relationship and In Vitro Anticancer Activity of Small-Molecule Inhibitors of the Protein–Protein Interactions between AF9/ENL and AF4 or DOT1L” (Cancers, 2023)
Where a name gives a salt, the structure may show the parent alone.

Each molecule was assayed against T1, AF9-DOT1L interaction (Homo sapiens, UniProt P42568) (assay: AlphaLisa assay, AF9-DOT1L interaction). Settings: not given.
T1 construct: human AF9 AHD domain (475–568); made in house; host or cells: E. coli BL21(DE3)
T1 sequence (P42568 475-568): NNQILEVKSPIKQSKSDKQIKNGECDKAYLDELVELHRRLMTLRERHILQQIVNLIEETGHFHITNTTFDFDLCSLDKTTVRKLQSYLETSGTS
Format: binding
Excerpt: An AlphaLisa assay we previously developed was used for compound screening for inhibitors of the AF9-DOT1L interaction. The PPI takes the DOT1L-peptide coated donor beads and AF9 AHD coated acceptor beads together. The donor beads are illuminated with a laser beam (680 nm) to generate singlet oxygen radicals, which activate the adjacent acceptor beads to produce luminescence at 615 nm. When a compound can disrupt such PPI and separate the donor and acceptor beads, the highly unstable radicals are rapidly quenched by water without generating luminescence.
The cDNA for the human AF9 AHD domain (475–568) and ENL AHD domain (489–559) was synthesized (by Genscript, Piscataway, NJ, USA) and inserted into the pMAL c5X expression plasmid. The DOT1L peptide (Biotin-AHX-[…]) and AF4 peptide (Biotin-AHX-[…]) for the Alpha assay were purchased from Genscript.
Alpha assays were developed in our previous publication, using a Perkin-Elmer AlphaLisa anti-MBP kit, which contains streptavidin donor beads and anti-MBP acceptor beads. Briefly, the assay was performed using a MBP-protein (5 nM), a biotinylated peptide (40 nM), and increasing concentrations of a compound in 25 µL buffer (PBS with 0.5% BSA, pH 7.5) in 384-well plates according to the manufacturer’s protocol and measured with a Tecan SPARK microplate reader. Data were imported into Prism (version 5.0), and IC50 values from 3 independent experiments with standard deviation were obtained by using a standard dose-response curve fitting.

In the case of O=C(NCC1CCNCC1)c1cc2ccc(-c3ccsc3)cc2[nH]1 [Compound 11], the “Inhibitory activity against the AF9-DOT1L interaction (in words)” value is reported as “almost inactive”.

Same assay, conditions: MBP-protein 5 nM, biotinylated peptide 40 nM, 3 independent experiments with standard deviation, read-out: IC50 (μM) against the AF9-DOT1L interaction

Point of comparison: O=C(NCC1CCNCC1)c1cc2ccc(-c3ccc(N4CCCC4)cc3)cc2[nH]1 [Compound 3, 6-(4-(1-Pyrrolinylphenyl)-N-(piperidin-4-ylmethyl)-1H-indole-2-carboxamide hydrochloride], IC50 2.8 ± 0.2 µM. Against it:
- O=C(NCC1CCNCC1)c1cc2ccc(Oc3ccc(Oc4ccc(Cl)cc4)cc3)cc2s1 [Compound 36, 6-(4-(4-Chlorophenoxyl)phenoxyl)-N-(piperidin-4-ylmethyl)-benzo[b]thiophene-2-carboxamide hydrochloride] — 1.8-fold higher, ~5 µM
- O=C(NCC1CCNCC1)c1cc2ccc(Nc3ccc(N4CCCCC4)cc3)cc2s1 [Compound 35, 6-((4-(Piperidin-1-yl)phenyl)amino)-N-(piperidin-4-ylmethyl)-benzo[b]thiophene-2-carboxamide hydrochloride] — within 1.5-fold, 2.3 ± 0.2 µM
- O=C(NCC1CCNCC1)c1cc2ccc(Nc3ccc(N4CCCCC4)cc3)cc2o1 [Compound 74, 6-((4-(Piperidin-1-yl)phenyl)amino)-N-(piperidin-4-ylmethyl)-benzofuran-2-carboxamide hydrochloride] — 1.6-fold higher, 4.6 ± 0.3 µM

Same assay, conditions: compound at 5 μM, read-out: % Inhibition at 5 μM against the AF9-DOT1L interaction

Point of comparison: O=C(NCC1CCNCC1)c1cc2ccc(Nc3ccc(OC(F)(F)F)cc3)cc2o1 [Compound 75, 6-((4-Trifuluoromethoxyl)phenyl)amino)-N-(piperidin-4-ylmethyl)-benzofuran-2-carboxamide hydrochloride], inhibition at 5 µM 23%. Against it:
- O=C(NCC1CCNCC1)c1cc2ccc(-c3ccc(C(=O)N4CCCCC4)cc3)cc2o1 [Compound 64, 6-(4-((Piperidine-1-yl)carbonyl)phenyl)-N-(piperidin-4-ylmethyl)-benzofuran-2-carboxamide hydrochloride] — lower, 0%
- O=C(NCC1CCNCC1)c1cc2ccc(-c3cccc(-c4ccccc4)c3)cc2o1 [Compound 68, 6-((1,1′-Biphenyl)-3-yl)-N-(piperidin-4-ylmethyl)-benzofuran-2-carboxamide hydrochloride] — higher, 33%
- O=C(NCC1CCNCC1)c1cc2ccc(-c3ccc(C(=O)N4CCC(N5CCCCC5)CC4)cc3)cc2o1 [Compound 66, 6-(4-((1,4′-Bipiperidine-1-yl)carbonyl)phenyl)-N-(piperidin-4-ylmethyl)-benzofuran-2-carboxamide hydrochloride] — lower, 0%
- O=C(NCC1CCNCC1)c1cc2ccc(Oc3ccc(Oc4ccc(Cl)cc4)cc3)cc2s1 [Compound 36, 6-(4-(4-Chlorophenoxyl)phenoxyl)-N-(piperidin-4-ylmethyl)-benzo[b]thiophene-2-carboxamide hydrochloride] — higher, 50%
- CS(=O)(=O)c1ccc(-c2ccc3cc(C(=O)NCC4CCNCC4)oc3c2)cc1 [Compound 70, 6-(4-(Methylsulfonyl)phenyl)-N-(piperidin-4-ylmethyl)-benzofuran-2-carboxamide hydrochloride] — lower, 19%
- O=C(NCC1CCNCC1)c1cc2cc(-c3ccc(N4CCOCC4)cc3)ccc2[nH]1 [Compound 17] — higher, 52%
- Cc1ccc(-c2ccc3cc(C(=O)NCC4CCNCC4)sc3c2)cc1 [Compound 47, 6-(4-Methylphenyl)-N-(piperidin-4-ylmethyl)-benzo[b]thiophene-2-carboxamide hydrochloride] — higher, 47%
- NCc1ccc(-c2ccc3c(C(=O)NCC4CCNCC4)c[nH]c3c2)cc1 [Compound 14] — lower, 11%
- O=C(NCC1CCNCC1)c1cc2ccc(-c3ccc(N4CCOCC4)cc3)cc2o1 [Compound 58, 6-(4-Morpholinophenyl)-N-(piperidin-4-ylmethyl)-benzofuran-2-carboxamide hydrochloride] — higher, 40%
- CCN(CC)c1ccc(-c2ccc3cc(C(=O)NCC4CCNCC4)oc3c2)cc1 [Compound 62, 6-(4-(Diethylamino)phenyl)-N-(piperidin-4-ylmethyl)-benzofuran-2-carboxamide hydrochloride] — higher, 30%
- O=C(NCC1CCNCC1)c1cc2ccc(-c3ccc4c(c3)OCCO4)cc2o1 [Compound 69, 6-(2,3-Dihydrobenzo[b][1,4]dioxin-6-yl)-N-(piperidin-4-ylmethyl)-benzofuran-2-carboxamide hydrochloride] — higher, 33%
- O=C(NCC1CCNCC1)c1cc2cc(-c3ccc(N4CCNCC4)cc3)ccc2[nH]1 [Compound 18] — higher, 36%
- CC(C)(C)c1ccc(-c2ccc3sc(C(=O)NCC4CCNCC4)cc3c2)cc1 [Compound 54, 5-(4-(Tert-butyl)phenyl)-N-(piperidin-4-ylmethyl)-benzo[b]thiophene-2-carboxamide hydrochloride] — higher, 33%
- O=C(NCC1CCNCC1)c1cc2ccc(-c3ccc(N4CCNCC4)cc3)cc2[nH]1 [Compound 5] — higher, 40%
- O=C(NCC1CCNCC1)c1cc2ccc(-c3ccc(CCO)cc3)cc2[nH]1 [Compound 7] — lower, 5.6%
- N#CCc1ccc(-c2ccc3cc(C(=O)NCC4CCNCC4)sc3c2)cc1 [Compound 41, 6-(4-(Cyanomethyl)phenyl)-N-(piperidin-4-ylmethyl)-benzo[b]thiophene-2-carboxamide hydrochloride] — higher, ~50%
- O=C(NCc1ccc(-c2ccc3cc(C(=O)NCC4CCNCC4)oc3c2)cc1)OCc1ccccc1 [Compound 71, 6-(4-(Benzyloxycarbonylaminomethyl)phenyl)-N-(piperidin-4-ylmethyl)-benzofuran-2-carboxamide hydrochloride] — higher, 27%
- O=C(NCC1CCNCC1)c1cc2ccc(-c3ccc(N4CCOCC4)cc3)cc2s1 [Compound 26, 6-(4-(Morpholino)phenyl)-N-(piperidin-4-ylmethyl)-benzo[b]thiophene-2-carboxamide hydrochloride] — higher, 40%
- O=C(NCC1CCNCC1)c1cc2ccc(-c3ccsc3)cc2[nH]1 [Compound 11] — lower, 10%
- O=C(NCC1CCNCC1)c1cc2ccc(-c3ccc(-c4ccsc4)cc3)cc2[nH]1 [Compound 6] — lower, 14%
- CC(C)(C)c1cccc(-c2ccc3cc(C(=O)NCC4CCNCC4)[nH]c3c2)c1 [Compound 9, 6-(3-(tert-Butyl)phenyl)-N-(piperidin-4-ylmethyl)-1H-indole-2-carboxamide hydrochloride] — lower, 17%
- O=C(NCC1CCNCC1)c1cc2ccc(Oc3ccc(Oc4ccc(Cl)cc4)cc3)cc2o1 [Compound 77, 6-(4-(4-Cholorophenoxyl)phenoxyl)-N-(piperidin-4-ylmethyl)-benzofuran-2-carboxamide hydrochloride] — lower, 20%
- O=C(NCC1CCNCC1)c1cc2ccc(-c3ccc(C(=O)N4CCCC4)cc3)cc2o1 [Compound 63, 6-(4-((Pyrrolidine-1-yl)carbonyl)phenyl)-N-(piperidin-4-ylmethyl)-benzofuran-2-carboxamide hydrochloride] — lower, 1%
- O=C(NCC1CCNCC1)c1cc2ccc(-c3ccc(C(=O)N4CCCCCC4)cc3)cc2o1 [Compound 65, 6-(4-((Azepane-1-yl)carbonyl)phenyl)-N-(piperidin-4-ylmethyl)-benzofuran-2-carboxamide hydrochloride] — lower, 0%
- CCN(CC)c1ccc(-c2ccc3cc(C(=O)NCC4CCNCC4)sc3c2)cc1 [Compound 27, 6-(4-(Diethylamino)phenyl)-N-(piperidin-4-ylmethyl)-benzo[b]thiophene-2-carboxamide hydrochloride] — higher, 25%
- CC(C)(C)c1ccc(-c2ccc3cc(C(=O)NCC4CCNCC4)sc3c2)cc1 [Compound 40, 6-(4-(Tert-butyl)phenyl)-N-(piperidin-4-ylmethyl)-benzo[b]thiophene-2-carboxamide hydrochloride] — lower, 19%
- O=C(NCC1CCNCC1)c1cc2ccc(-c3ccc(C(=O)N4CCCC4)cc3)cc2s1 [Compound 30] — lower, 0%
- CC(=O)Nc1ccc(-c2ccc3cc(C(=O)NCC4CCNCC4)sc3c2)cc1 [Compound 38, 6-(4-(Acetamido)phenyl)-N-(piperidin-4-ylmethyl)-benzo[b]thiophene-2-carboxamide hydrochloride] — lower, 0%
- CC(C)(C)c1ccc(-c2ccc3[nH]c(C(=O)NCC4CCNCC4)cc3c2)cc1 [Compound 19] — lower, 13%
- N#Cc1ccc(-c2ccc3sc(C(=O)NCC4CCNCC4)cc3c2)cc1 [Compound 53, 5-(4-Cyanophenyl)-N-(piperidin-4-ylmethyl)-benzo[b]thiophene-2-carboxamide hydrochloride] — the same, 23%
- O=C(NCC1CCNCC1)c1cc2ccc(-c3ccc(C(=O)N4CCCCC4)cc3)cc2s1 [Compound 29, 6-(4-(Piperidine-1-carbonyl)phenyl)-N-(piperidin-4-ylmethyl)-benzo[b]thiophene-2-carboxamide hydrochloride] — lower, 8%
- O=C(NCC1CCNCC1)c1cc2ccc(-c3ccc(N4CCNCC4)cc3)cc2o1 [Compound 59, 6-(4-(Piperazin-1-yl)phenyl)-N-(piperidin-4-ylmethyl)-benzofuran-2-carboxamide hydrochloride] — higher, 38%
- COc1ccc(-c2ccc3cc(C(=O)NCC4CCNCC4)sc3c2)cc1 [Compound 45, 6-(4-Methoxylphenyl)-N-(piperidin-4-ylmethyl)-benzo[b]thiophene-2-carboxamide hydrochloride] — higher, 43%
